Results from patent publication US10874743B2, “IRAK degraders and uses thereof” (Kymera Therapeutics, Inc., priority 2017, dated 2020).
“And” between values parts separate entries of the source, which are not always exact repeats. Equal values may be shown once. Read-outs that look alike come from different tables or passages of the source.

Test: Pharmacokinetics in Sprague Dawley rats (plasma and brain concentrations, PK parameters)
Type: in vivo
Conditions: for Concentration Rat 4 / Concentration Rat 5 / Concentration Rat 6: po 10 mg/kg
Protocol: Pharmacokinetics for I-127, I-172 and I-210 were determined in Sprague Dawley rats or CD-1 mice by dosing intravenous (IV), subcutaneous (SC) or per oral (PO) using facility SOPs and sampling plasma at required time points. Species, formulation, route of administration and time points samples are listed below for each compound.
Compounds were extracted from plasma, injected on reverse phase HPLC, eluted with a gradient from 5% to 95% acetonitrile in water and quantified by mass spectrometry with internal standard. Data are expressed in ng compound per mL of plasma.

[1] = Rat (Sprague Dawley) po 10 mg/kg, Mean
[2] = Rat (Sprague Dawley) po 10 mg/kg, individual Rat 4-6, 10 mg/kg
[3] = Sprague Dawley rat, iv 3 mg/kg, Rat 1
[4] = Sprague Dawley rat, iv 3 mg/kg, Rat 2
[5] = Sprague Dawley rat, iv 3 mg/kg, Rat 3
[6] = Sprague Dawley rat, iv 3 mg/kg, mean of 3 rats
[7] = Sprague Dawley rat, plasma, 0 h
[8] = Sprague Dawley rat, plasma, 24 h

O=C1CCC(N2C(=O)c3cccc(NCCOCCOCCNCc4ccc(-n5cc(NC(=O)c6coc(-c7ccnc(NCC8CC8)c7)n6)c(C(F)F)n5)cc4)c3C2=O)C(=O)N1 (stereo not drawn) [I-210, 2-[2-(Cyclopropylmethylamino)-4-pyridyl]-N-[3-(difluoromethyl)-1-[4-[[2-[2-[2-[[2-(2,6-dioxo-3-piperidyl)-1,3-dioxoisoindolin-4-yl]amino]ethoxy]ethoxy]ethylamino]methyl]phenyl]pyrazol-4-yl]oxazole-4-carboxamide]
brain Detected Conc. (Rat (Sprague Dawley) iv 3 mg/kg (IVB), brain homogenate 1:2 in PBS, 0.083 h, Group 1, Group 2, 3 mg/kg): 11.8 ng/mL
brain Detected Conc. (Rat (Sprague Dawley) iv 3 mg/kg (IVB), brain homogenate 1:2 in PBS, 0.25 h, Group 1, Group 2, 3 mg/kg): 12.9 ng/mL
brain Detected Conc. (Rat (Sprague Dawley) iv 3 mg/kg (IVB), brain homogenate 1:2 in PBS, 1 h, Group 1, Group 2, 3 mg/kg): 17.5 ng/mL
brain Detected Conc. (Rat (Sprague Dawley) iv 3 mg/kg (IVB), brain homogenate 1:2 in PBS, 4 h, Group 1, Group 2, 3 mg/kg): 12.4 ng/mL
brain Actual Conc. (Rat (Sprague Dawley) iv 3 mg/kg (IVB), brain, 0.083 h, Group 1, Group 2, detected value multiplied by 3, 3 mg/kg): 35.4 ng/g
brain Actual Conc. (Rat (Sprague Dawley) iv 3 mg/kg (IVB), brain, 0.25 h, Group 1, Group 2, detected value multiplied by 3, 3 mg/kg): 38.7 ng/g
brain Actual Conc. (Rat (Sprague Dawley) iv 3 mg/kg (IVB), brain, 1 h, Group 1, Group 2, detected value multiplied by 3, 3 mg/kg): 52.5 ng/g
brain Actual Conc. (Rat (Sprague Dawley) iv 3 mg/kg (IVB), brain, 4 h, Group 1, Group 2, detected value multiplied by 3, 3 mg/kg): 37.2 ng/g
AUC_%Extrap_obs [1]: 42.3%
AUClast/D [1]: 1.52 kg·ng·h/mL/mg
F [1]: 0.385%
AUC_%Extrap_obs [2]: 33.5% and 48.7% and 44.8%
AUClast [2]: 17.7 ng·h/mL and 21.1 ng·h/mL and 6.66 ng·h/mL
Cmax [2]: 3.50 ng/mL and 4.02 ng/mL and 1.20 ng/mL
F [2]: 0.450% and 0.536% and 0.169%
MRTInf_obs [2]: 10.2 h and 9.35 h
T1/2 [2]: 5.65 h and 5.28 h
AUC_%Extrap_obs Rat 1 [3]: 0.140%
AUClast/D Rat 1 [3]: 414 kg·ng·h/mL/mg
Cl_obs Rat 1 [3]: 40.2 mL/min/kg
Vss_obs Rat 1 [3]: 7.85 L/kg
AUC_%Extrap_obs Rat 2 [4]: 0.183%
AUClast/D Rat 2 [4]: 403 kg·ng·h/mL/mg
Cl_obs Rat 2 [4]: 41.2 mL/min/kg
Vss_obs Rat 2 [4]: 7.79 L/kg
AUC_%Extrap_obs Rat 3 [5]: 0.185%
AUClast/D Rat 3 [5]: 364 kg·ng·h/mL/mg
Cl_obs Rat 3 [5]: 45.7 mL/min/kg
Vss_obs Rat 3 [5]: 8.00 L/kg
AUC_%Extrap_obs Mean [6]: 0.169%
AUClast/D Mean [6]: 394 kg·ng·h/mL/mg
Cl obs Mean [6]: 42 mL/min/kg
Vss_obs Mean [6]: 7.88 L/kg
Concentration Rat 1 (Sprague Dawley rat, iv 3 mg/kg, plasma, 0 h, Rat 1): BLOQ
Concentration Rat 2 (Sprague Dawley rat, iv 3 mg/kg, plasma, 0 h, Rat 2): BLOQ
Concentration Rat 3 (Sprague Dawley rat, iv 3 mg/kg, plasma, 0 h, Rat 3): BLOQ
Concentration Rat 4 [7]: BLOQ
Concentration Rat 5 [7]: BLOQ
Concentration Rat 6 [7]: BLOQ
Concentration Rat 4 [8]: BLOQ
Concentration Rat 5 [8]: BLOQ
Concentration Rat 6 [8]: BLOQ
concentration at 0.083 h (Sprague Dawley, rat, brain homogenate, iv, 3 mg/kg, Rat (Sprague Dawley) iv 3 mg/kg (IVB), brain homogenate 1:2 in PBS, 0.083 h, Group 1, Group 2, read-out: brain Detected Conc.): 17.2 ng/mL
concentration at 0.25 h (Sprague Dawley, rat, brain homogenate, iv, 3 mg/kg, Rat (Sprague Dawley) iv 3 mg/kg (IVB), brain homogenate 1:2 in PBS, 0.25 h, Group 1, Group 2, read-out: brain Detected Conc.): 13.2 ng/mL
concentration at 1 h (Sprague Dawley, rat, brain homogenate, iv, 3 mg/kg, Rat (Sprague Dawley) iv 3 mg/kg (IVB), brain homogenate 1:2 in PBS, 1 h, Group 1, Group 2, read-out: brain Detected Conc.): 13.3 ng/mL
concentration at 4 h (Sprague Dawley, rat, brain homogenate, iv, 3 mg/kg, Rat (Sprague Dawley) iv 3 mg/kg (IVB), brain homogenate 1:2 in PBS, 4 h, Group 1, Group 2, read-out: brain Detected Conc.): 14.2 ng/mL
concentration at 0.083 h (Sprague Dawley, rat, brain, iv, 3 mg/kg, Rat (Sprague Dawley) iv 3 mg/kg (IVB), brain, 0.083 h, Group 1, Group 2, detected value multiplied by 3, read-out: brain Actual Conc.): 51.6 ng/g
concentration at 0.083 h (Sprague Dawley, rat, brain, iv, 3 mg/kg, Rat (Sprague Dawley) iv 3 mg/kg (IVB), brain, 0.083 h, Mean, read-out: brain Actual Conc.): 43.5 ng/g
concentration at 0.25 h (Sprague Dawley, rat, brain, iv, 3 mg/kg, Rat (Sprague Dawley) iv 3 mg/kg (IVB), brain, 0.25 h, Group 1, Group 2, detected value multiplied by 3, read-out: brain Actual Conc.): 39.6 ng/g
concentration at 0.25 h (Sprague Dawley, rat, brain, iv, 3 mg/kg, Rat (Sprague Dawley) iv 3 mg/kg (IVB), brain, 0.25 h, Mean, read-out: brain Actual Conc.): 39.2 ng/g
concentration at 1 h (Sprague Dawley, rat, brain, iv, 3 mg/kg, Rat (Sprague Dawley) iv 3 mg/kg (IVB), brain, 1 h, Group 1, Group 2, detected value multiplied by 3, read-out: brain Actual Conc.): 39.9 ng/g
concentration at 1 h (Sprague Dawley, rat, brain, iv, 3 mg/kg, Rat (Sprague Dawley) iv 3 mg/kg (IVB), brain, 1 h, Mean, read-out: brain Actual Conc.): 46.2 ng/g
AUC(0-inf) (Sprague Dawley, rat, plasma, iv, 3 mg/kg, Sprague Dawley rat, iv 3 mg/kg, Rat 1, read-out: AUCInf Rat 1): 1240 ng·h/mL
AUC(0-t) (Sprague Dawley, rat, plasma, iv, 3 mg/kg, Sprague Dawley rat, iv 3 mg/kg, Rat 1, read-out: AUClast Rat 1): 1240 ng·h/mL
C0 (Sprague Dawley, rat, plasma, iv, 3 mg/kg, Sprague Dawley rat, iv 3 mg/kg, Rat 1, read-out: C0 Rat 1): 873 ng/mL
half-life (Sprague Dawley, rat, plasma, iv, 3 mg/kg, Sprague Dawley rat, iv 3 mg/kg, Rat 1, read-out: T1/2 Rat 1 (converted)): 160 min
AUC(0-inf) (Sprague Dawley, rat, plasma, iv, 3 mg/kg, Sprague Dawley rat, iv 3 mg/kg, Rat 2, read-out: AUCInf Rat 2): 1210 ng·h/mL
AUC(0-t) (Sprague Dawley, rat, plasma, iv, 3 mg/kg, Sprague Dawley rat, iv 3 mg/kg, Rat 2, read-out: AUClast Rat 2): 1210 ng·h/mL
C0 (Sprague Dawley, rat, plasma, iv, 3 mg/kg, Sprague Dawley rat, iv 3 mg/kg, Rat 2, read-out: C0 Rat 2): 814 ng/mL
half-life (Sprague Dawley, rat, plasma, iv, 3 mg/kg, Sprague Dawley rat, iv 3 mg/kg, Rat 2, read-out: T1/2 Rat 2 (converted)): 170 min
AUC(0-inf) (Sprague Dawley, rat, plasma, iv, 3 mg/kg, Sprague Dawley rat, iv 3 mg/kg, Rat 3, read-out: AUCInf Rat 3): 1090 ng·h/mL
AUC(0-t) (Sprague Dawley, rat, plasma, iv, 3 mg/kg, Sprague Dawley rat, iv 3 mg/kg, Rat 3, read-out: AUClast Rat 3): 1090 ng·h/mL
C0 (Sprague Dawley, rat, plasma, iv, 3 mg/kg, Sprague Dawley rat, iv 3 mg/kg, Rat 3, read-out: C0 Rat 3): 855 ng/mL
half-life (Sprague Dawley, rat, plasma, iv, 3 mg/kg, Sprague Dawley rat, iv 3 mg/kg, Rat 3, read-out: T1/2 Rat 3 (converted)): 173 min
AUC(0-inf) (Sprague Dawley, rat, plasma, iv, 3 mg/kg, Sprague Dawley rat, iv 3 mg/kg, mean of 3 rats, read-out: AUCInf Mean): 1180 ng·h/mL
AUC(0-t) (Sprague Dawley, rat, plasma, iv, 3 mg/kg, Sprague Dawley rat, iv 3 mg/kg, mean of 3 rats, read-out: AUClast Mean): 1180 ng·h/mL
C0 (Sprague Dawley, rat, plasma, iv, 3 mg/kg, Sprague Dawley rat, iv 3 mg/kg, mean of 3 rats, read-out: C0 Mean): 848 ng/mL
half-life (Sprague Dawley, rat, plasma, iv, 3 mg/kg, Sprague Dawley rat, iv 3 mg/kg, mean of 3 rats, read-out: T1/2 Mean (converted)): 167 min
AUC(0-inf) (Sprague Dawley, rat, plasma, po, 10 mg/kg, Rat (Sprague Dawley) po 10 mg/kg, Mean, read-out: AUCInf): 26.6 ng·h/mL
